The results in this text go back to EP4660182A1, “NAV1.7- AND/OR NAV1.8-INHIBITING ARYL PYRIDINE COMPOUNDS, PROCESSES FOR THE PREPARATION THEREOF, COMPOSITIONS, USES, METHODS FOR TREATMENT USING SAME, AND KITS” (Eurofarma Laboratórios S.A., priority 2023, dated 2024).

Each structure is given as a SMILES string. pIC50: −log10 of the molar value.

In assay [1] the target is T1, human sodium channels Nav 1.8 (Homo sapiens, UniProt Q9Y5Y9).
T1 construct: expressed in transfected cells
Description: Automated whole-cell voltage-clamp (ScreenPatch 384P) sodium current block, Nav 1.8. The settings on record: CHO cells stably expressing human Nav 1.8; inactivation step -40 mV 8 s, test step 10 mV (TP1A); eight concentrations; exposure at least five minutes; room temperature; read-out: Nav1.8 IC50. Format: cell-based. The method, boiled down:
(§1)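 Stable CHO lines, whole-cell automated patch clamp at room temperature, ≥5 min exposure, eight concentrations. From -100 mV hold, 8 s at -40 mV, 20 ms at -100 mV, then test pulse to 10 mV (Nav 1.8) or 0 mV (Nav 1.7) at 0.05 Hz; peak-current % block fitted for IC50, averaged over repeats.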

Assay [2] has as its target T2, human sodium channels Nav 1.7 (Homo sapiens, UniProt Q15858).
T2 construct: expressed in transfected cells
In words: Automated whole-cell voltage-clamp (ScreenPatch 384P) sodium current block, Nav 1.7. Format: cell-based. The settings on record: CHO cells stably expressing human Nav 1.7; inactivation step -40 mV 8 s, test step 0 mV (TP1A); eight concentrations; exposure at least five minutes; room temperature; read-out: Nav1.7 IC50. In outline: as §1

T1 sequence (Q9Y5Y9 whole entry): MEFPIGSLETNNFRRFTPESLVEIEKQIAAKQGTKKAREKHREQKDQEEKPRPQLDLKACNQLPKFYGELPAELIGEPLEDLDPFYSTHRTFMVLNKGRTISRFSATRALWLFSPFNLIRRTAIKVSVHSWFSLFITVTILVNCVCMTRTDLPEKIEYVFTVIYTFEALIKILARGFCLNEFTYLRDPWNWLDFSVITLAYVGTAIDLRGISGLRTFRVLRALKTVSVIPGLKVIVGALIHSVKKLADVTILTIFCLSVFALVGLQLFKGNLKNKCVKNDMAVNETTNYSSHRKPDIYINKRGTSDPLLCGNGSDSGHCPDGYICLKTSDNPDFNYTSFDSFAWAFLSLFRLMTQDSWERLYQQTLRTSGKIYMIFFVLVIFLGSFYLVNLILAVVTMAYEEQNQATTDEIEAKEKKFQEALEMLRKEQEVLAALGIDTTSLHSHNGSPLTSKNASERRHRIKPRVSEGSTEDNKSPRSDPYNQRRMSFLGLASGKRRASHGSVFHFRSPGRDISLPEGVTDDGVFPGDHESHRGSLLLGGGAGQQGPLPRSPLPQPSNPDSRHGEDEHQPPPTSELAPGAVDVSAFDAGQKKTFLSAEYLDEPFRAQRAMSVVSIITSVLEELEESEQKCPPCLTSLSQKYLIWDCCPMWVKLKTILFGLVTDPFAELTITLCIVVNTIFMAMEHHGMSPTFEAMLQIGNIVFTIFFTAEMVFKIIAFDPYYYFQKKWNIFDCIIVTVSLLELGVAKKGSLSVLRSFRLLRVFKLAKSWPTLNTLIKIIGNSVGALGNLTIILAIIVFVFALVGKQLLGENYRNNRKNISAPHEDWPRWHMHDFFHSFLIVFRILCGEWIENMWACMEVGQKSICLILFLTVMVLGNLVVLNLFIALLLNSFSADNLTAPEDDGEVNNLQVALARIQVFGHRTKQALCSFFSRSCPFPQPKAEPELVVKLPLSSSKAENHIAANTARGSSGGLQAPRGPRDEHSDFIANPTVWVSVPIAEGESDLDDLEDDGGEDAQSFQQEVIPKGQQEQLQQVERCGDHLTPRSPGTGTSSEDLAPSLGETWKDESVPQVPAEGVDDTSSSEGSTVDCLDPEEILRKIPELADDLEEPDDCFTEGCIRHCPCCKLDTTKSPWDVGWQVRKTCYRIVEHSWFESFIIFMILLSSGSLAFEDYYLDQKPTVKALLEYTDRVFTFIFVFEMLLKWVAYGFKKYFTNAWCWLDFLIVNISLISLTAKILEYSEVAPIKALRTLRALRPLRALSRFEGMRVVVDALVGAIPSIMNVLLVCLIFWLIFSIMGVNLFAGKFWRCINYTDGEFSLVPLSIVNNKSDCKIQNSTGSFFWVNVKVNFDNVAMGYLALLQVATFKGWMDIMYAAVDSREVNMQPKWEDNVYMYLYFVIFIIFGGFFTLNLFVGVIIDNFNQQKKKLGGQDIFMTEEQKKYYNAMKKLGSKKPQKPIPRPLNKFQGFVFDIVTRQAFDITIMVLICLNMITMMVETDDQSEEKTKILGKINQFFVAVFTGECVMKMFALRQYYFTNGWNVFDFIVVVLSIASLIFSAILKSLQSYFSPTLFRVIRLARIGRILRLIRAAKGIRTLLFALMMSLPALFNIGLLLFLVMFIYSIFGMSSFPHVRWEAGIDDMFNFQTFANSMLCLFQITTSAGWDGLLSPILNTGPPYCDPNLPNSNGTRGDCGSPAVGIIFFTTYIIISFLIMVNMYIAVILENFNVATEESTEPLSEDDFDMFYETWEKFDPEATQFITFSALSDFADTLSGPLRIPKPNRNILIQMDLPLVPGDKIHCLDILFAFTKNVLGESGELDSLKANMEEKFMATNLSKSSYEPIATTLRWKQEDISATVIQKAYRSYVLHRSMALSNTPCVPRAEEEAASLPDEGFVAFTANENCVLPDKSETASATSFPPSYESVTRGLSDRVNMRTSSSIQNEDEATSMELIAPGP
T2 sequence (Q15858 whole entry): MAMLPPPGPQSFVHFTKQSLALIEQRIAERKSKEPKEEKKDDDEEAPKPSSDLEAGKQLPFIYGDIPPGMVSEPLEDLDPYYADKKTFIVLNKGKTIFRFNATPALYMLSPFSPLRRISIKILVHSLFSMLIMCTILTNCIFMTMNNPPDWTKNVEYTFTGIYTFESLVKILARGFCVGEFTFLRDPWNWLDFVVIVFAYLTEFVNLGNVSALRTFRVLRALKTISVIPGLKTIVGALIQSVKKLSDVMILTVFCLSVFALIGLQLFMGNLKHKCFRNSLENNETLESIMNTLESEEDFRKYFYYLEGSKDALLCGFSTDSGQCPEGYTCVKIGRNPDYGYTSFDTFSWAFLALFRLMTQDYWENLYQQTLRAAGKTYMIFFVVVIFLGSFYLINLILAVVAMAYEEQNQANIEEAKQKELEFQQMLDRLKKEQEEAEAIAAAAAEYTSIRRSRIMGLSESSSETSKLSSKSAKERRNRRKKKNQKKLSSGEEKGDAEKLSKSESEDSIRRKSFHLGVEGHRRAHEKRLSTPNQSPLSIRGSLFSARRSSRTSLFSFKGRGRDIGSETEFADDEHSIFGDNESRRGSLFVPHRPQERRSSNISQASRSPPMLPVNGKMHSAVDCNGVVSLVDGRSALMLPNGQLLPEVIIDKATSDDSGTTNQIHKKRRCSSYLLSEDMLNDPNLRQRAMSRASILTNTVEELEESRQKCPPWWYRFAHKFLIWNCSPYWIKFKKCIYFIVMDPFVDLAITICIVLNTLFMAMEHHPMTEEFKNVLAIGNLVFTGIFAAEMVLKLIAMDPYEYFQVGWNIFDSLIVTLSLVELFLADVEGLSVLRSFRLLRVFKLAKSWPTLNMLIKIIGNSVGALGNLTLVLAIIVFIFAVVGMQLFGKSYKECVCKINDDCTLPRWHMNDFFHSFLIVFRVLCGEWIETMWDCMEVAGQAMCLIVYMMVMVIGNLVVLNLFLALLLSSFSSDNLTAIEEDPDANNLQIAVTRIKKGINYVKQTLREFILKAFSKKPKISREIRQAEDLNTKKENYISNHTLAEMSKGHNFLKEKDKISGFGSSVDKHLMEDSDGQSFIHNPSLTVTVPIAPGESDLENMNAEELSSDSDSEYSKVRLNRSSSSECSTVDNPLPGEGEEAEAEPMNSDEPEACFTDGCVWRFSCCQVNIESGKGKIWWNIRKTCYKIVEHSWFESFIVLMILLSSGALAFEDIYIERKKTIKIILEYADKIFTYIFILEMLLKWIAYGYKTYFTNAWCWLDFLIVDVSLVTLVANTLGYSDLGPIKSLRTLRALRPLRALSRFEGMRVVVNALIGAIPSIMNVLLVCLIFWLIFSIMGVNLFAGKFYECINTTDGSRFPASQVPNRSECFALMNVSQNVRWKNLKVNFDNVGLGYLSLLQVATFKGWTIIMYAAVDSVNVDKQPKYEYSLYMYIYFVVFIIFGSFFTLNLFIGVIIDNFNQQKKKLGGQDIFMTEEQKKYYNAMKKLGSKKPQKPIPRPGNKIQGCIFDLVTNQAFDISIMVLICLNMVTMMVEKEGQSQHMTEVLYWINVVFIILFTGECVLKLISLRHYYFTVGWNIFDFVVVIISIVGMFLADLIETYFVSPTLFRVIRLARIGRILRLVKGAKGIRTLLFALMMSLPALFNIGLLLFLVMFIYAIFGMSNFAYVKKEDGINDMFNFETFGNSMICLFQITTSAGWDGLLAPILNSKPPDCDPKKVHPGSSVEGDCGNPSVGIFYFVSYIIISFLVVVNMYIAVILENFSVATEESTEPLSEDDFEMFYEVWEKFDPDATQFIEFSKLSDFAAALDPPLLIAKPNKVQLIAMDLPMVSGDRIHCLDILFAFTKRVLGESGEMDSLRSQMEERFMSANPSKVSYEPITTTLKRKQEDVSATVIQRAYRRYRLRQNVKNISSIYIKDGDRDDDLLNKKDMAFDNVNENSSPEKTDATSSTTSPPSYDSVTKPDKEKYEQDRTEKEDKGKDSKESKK

As to `COc1cnc(O)c(/C=N/NC(=O)c2cncc(-c3ccc(OC(F)F)nc3)n2)c1` [Compound 117, (E)-6-(6-(difluoromethoxy)pyridine-3-yl)-N'-((2-hydroxy-5-methoxypyridine-3-yl)methylene)pyrazine-2-carbohydrazide], the pIC50 in assay [1] and in assay [2] was under 6.00 each time.

With `COc1cc(/C=N/NC(=O)c2cncc(-c3ccc(OC(F)F)nc3)n2)cc(O)n1` [Compound 118, (E)-6-(6-(difluoromethoxy)pyridine-3-yl)-N'-((2-hydroxy-6-methoxypyridine-4-yl)methylene)pyrazine-2-carbohydrazide], the pIC50 in assay [1] and in assay [2] was under 6.00 each time.

As to `COc1cc(O)c(F)c(/C=N/NC(=O)c2cncc(-c3ccc(OC(F)F)nc3)n2)c1` [Compound 119, (E)-6-(6-(difluoromethoxy)pyridine-3-yl)-N'-(2-fluoro-3-hydroxy-5-methoxybenzylidene)pyrazine-2-carbohydrazide], the pIC50 (usually the negative decadic logarithm of the IC50, by convention in mol/L) in assay [1] is 6.00 to 6.30; in assay [2], under 6.00.

Regarding `COc1ccc(O)c(/C=N/NC(=O)c2cncc(-c3ccc(OC(F)F)nc3)n2)c1` [Compound 120, (E)-6-(6-(difluoromethoxy)pyridine-3-yl)-N'-(2-hydroxy-5-methoxybenzylidene)pyrazine-2-carbohydrazide], the pIC50 in assay [1] and in assay [2] was under 6.00 each time.

Consider `COc1cnc(F)c(/C=N/NC(=O)c2cccc(-c3ccc(OC(F)F)nc3)n2)c1` [Compound 125, (E)-6'-(difluoromethoxy)-N'-((2-fluoro-5-methoxypyridine-3-yl)methylene)-[2,3'-bipyridine]-6-carbohydrazide], for which the pIC50 in assay [1] and in assay [2] was over 6.30 throughout.

Turning to `COc1cnc(F)c(/C=N/NC(=O)c2ccnc(-c3ccc(OC(F)F)nc3)n2)c1` [Compound 126, (E)-2-(6-(difluoromethoxy)pyridine-3-yl)-N'-((2-fluoro-5-methoxypyridine-3-yl)methylene) pyrimidine-4-carbohydrazide], the results for the pIC50 in assay [1] and in assay [2] were 6.00 to 6.30 and under 6.00, respectively.

On to `COc1cnc(F)c(/C=N/NC(=O)c2nccc(-c3ccc(OC(F)F)nc3)n2)c1` [Compound 127, (E)-4-(6-(difluoromethoxy)pyridine-3-yl)-N'-((2-fluoro-5-methoxypyridine-3-yl)methylene)pyrimidine-2-carbohydrazide], for which the pIC50 in assay [1] is 6.00 to 6.30; in assay [2] it was under 6.00.

Turning to `COc1cnc(F)c(/C=N/NC(=O)c2cncc(-c3ccc(OC(F)F)nc3)c2)c1` [Compound 128, (E)-6'-(difluoromethoxy)-N'-((2-fluoro-5-methoxypyridine-3-yl)methylene)-[3,3'-bipyridine]-5-carbohydrazide], the pIC50 in assay [1] and in assay [2] was under 6.00 in each case.

Turning to `COc1ccc(F)c(/C=N/NC(=O)c2cncc(-c3ccc(C#N)nc3)n2)c1` [Compound 130, (E)-6-(6-cyanopyridine-3-yl)-N'-(2-fluoro-5-methoxybenzylidene)pyrazine-2-carbohydrazide], the pIC50 in assay [1] and in assay [2] was under 6.00 throughout.

Turning to `COc1ccc(F)c(/C=N/NC(=O)c2cncc(-c3ccc([S+](C)[O-])nc3)n2)c1` (centres unmarked) [Compound 131, (E)-N'-(2-fluoro-5-methoxybenzylidene)-6-(6-(methylsulfinyl)pyridine-3-yl)pyrazine-2-carbohydrazide], the pIC50 in assay [1] is 6.00 to 6.30; in assay [2] it was under 6.00.

For the molecule `CC[S+]([O-])c1ccc(-c2cncc(C(=O)N/N=C/c3cc(OC)ccc3F)n2)cn1` (centres unmarked) [Compound 132, (E)-6-(6-(ethylsulfinyl)pyridine-3-yl)-N'-(2-fluoro-5-methoxybenzylidene)pyrazine-2-carbohydrazide], the pIC50 in assay [1] and in assay [2] was under 6.00 each time.

Take `COc1ccc(F)c(/C=N/NC(=O)c2cncc(-c3ccc(S(N)(=O)=O)nc3)n2)c1` [Compound 133, (E)-5-(6-(2-(2-fluoro-5-methoxybenzylidene)hydrazine-1-carbonyl)pyrazine-2-yl)pyridine-2-sulfonamide]: the pIC50 in assay [1] and in assay [2] was under 6.00 throughout.

In the case of `CNS(=O)(=O)c1ccc(-c2cncc(C(=O)N/N=C/c3cc(OC)ccc3F)n2)cn1` [Compound 134, (E)-5-(6-(2-(2-fluoro-5-methoxybenzylidene)hydrazine-1-carbonyl)pyrazine-2-yl)-N-methylpyridine-2-sulfonamide], the pIC50 in assay [1] and in assay [2] was under 6.00 throughout.

In the case of `COc1ccc(F)c(/C=N/NC(=O)c2cncc(-c3ccc(OCCN)nc3)n2)c1` [Compound 135, (E)-6-(6-(2-aminoethoxy)pyridine-3-yl)-N'-(2-fluoro-5-methoxybenzylidene) pyrazine-2-carbohydrazide], the pIC50 in assay [1] and in assay [2] was under 6.00 in each case.

With `COc1ccc(F)c(/C=N/NC(=O)c2cncc(-c3ccc(OCC(C)N)nc3)n2)c1` (centres unmarked) [Compound 136, (E)-6-(6-(2-aminopropoxy)pyridine-3-yl)-N'-(2-fluoro-5-methoxybenzylidene) pyrazine-2-carbohydrazide], the pIC50 in assay [1] and in assay [2] was under 6.00 throughout.

Consider `COc1ccc(F)c(/C=N/NC(=O)c2cncc(-c3ccc(OCCO)nc3)n2)c1` [Compound 137, (E)-N'-(2-fluoro-5-methoxybenzylidene)-6-(6-(2-hydroxyethoxy)pyridine-3-yl)pyrazine-2-carbohydrazide], for which the pIC50 in assay [1] and in assay [2] was under 6.00 each time.

`COc1ccc(F)c(/C=N/NC(=O)c2cncc(-c3ccc(OCC(C)O)nc3)n2)c1` (centres unmarked) [Compound 138, (E)-N'-(2-fluoro-5-methoxybenzylidene)-6-(6-(2-hydroxypropoxy)pyridine-3-yl) pyrazine-2-carbohydrazide]: the pIC50 in assay [1] and in assay [2] was under 6.00 each time.

As to `COc1ccc(F)c(/C=N/NC(=O)c2cncc(-c3ccc(OC4CNC4)nc3)n2)c1` [Compound 139, (E)-6-(6-(azetidin-3-yloxy)pyridine-3-yl)-N'-(2-fluoro-5-methoxybenzylidene) pyrazine-2-carbohydrazide], the pIC50 in assay [1] and in assay [2] was under 6.00 each time.

As to `COc1ccc(F)c(/C=N/NC(=O)c2cncc(-c3ccc(OCC4CNC4)nc3)n2)c1` [Compound 140, (E)-6-(6-(azetidin-3-ylmethoxy)pyridine-3-yl)-N'-(2-fluoro-5-methoxybenzylidene) pyrazine-2-carbohydrazide], the pIC50 in assay [1] and in assay [2] was under 6.00 throughout.

Take `COc1ccc(F)c(/C=N/NC(=O)c2cncc(-c3ccc(OCCC4CNC4)nc3)n2)c1` [Compound 141, (E)-6-(6-(2-(azetidin-3-yl)ethoxy)pyridine-3-yl)-N'-(2-fluoro-5-methoxybenzylidene)pyrazine-2-carbohydrazide]: the pIC50 in assay [1] and in assay [2] was under 6.00 in each case.

Consider `COc1cnc(F)c(/C=N/NC(=O)c2cncc(-c3ccc(OC4CNC4)nc3)n2)c1` [Compound 142, (E)-6-(6-(azetidin-3-yloxy)pyridine-3-yl)-N'-((2-fluoro-5-methoxypyridine-3-yl)methylene)pyrazine-2-carbohydrazide], for which the pIC50 in assay [1] and in assay [2] was under 6.00 each time.

For `COc1cnc(F)c(/C=N/NC(=O)c2cncc(-c3ccc(OCC4CNC4)nc3)n2)c1` [Compound 143, (E)-6-(6-(azetidin-3-ylmethoxy)pyridine-3-yl)-N'-((2-fluoro-5-methoxypyridine-3-yl)methylene)pyrazine-2-carbohydrazide], the pIC50 in assay [1] and in assay [2] was under 6.00 each time.

In the case of `COc1cnc(F)c(/C=N/NC(=O)c2cncc(-c3ccc(OCCC4CNC4)nc3)n2)c1` [Compound 144, (E)-6-(6-(2-(azetidine-3-yl)ethoxy)pyridine-3-yl)-N'-((2-fluoro-5-methoxypyridine-3-yl)methylene)pyrazine-2-carbohydrazide], the pIC50 in assay [1] and in assay [2] was under 6.00 each time.

As for `COc1ccc(F)c(/C=N/NC(=O)c2cncc(-c3ccc(OCC4CN(C)C4)nc3)n2)c1` [Compound 146, (E)-N'-(2-fluoro-5-methoxybenzylidene)-6-(6-((1-methylazetidine-3-yl)methoxy)pyridine-3-yl)pyrazine-2-carbohydrazide], the pIC50 in assay [1] and in assay [2] was under 6.00 throughout.

Take `COc1ccc(F)c(/C=N/NC(=O)c2cncc(-c3ccc(OCCC4CN(C)C4)nc3)n2)c1` [Compound 147, (E)-N'-(2-fluoro-5-methoxybenzylidene)-6-(6-(2-(1-methylazetidine-3-yl)ethoxy)pyridine-3-yl)pyrazine-2-carbohydrazide]: the pIC50 in assay [1] and in assay [2] was under 6.00 throughout.

Take `CCOc1cc(C)c(-c2cncc(C(=O)N/N=C/c3cc(OC)cnc3F)n2)cn1` [Compound 151, (E)-6-(6-ethoxy-4-methylpyridine-3-yl)-N'-((2-fluoro-5-methoxypyridine-3-yl)methylene)pyrazine-2-carbohydrazide]: the pIC50 was over 6.30 in assay [1] and under 6.00 in assay [2].

As to `CCOc1ccc(-c2cncc(C(=O)N/N=C/c3cc(OC)cnc3F)n2)c(C)n1` [Compound 152, (E)-6-(6-ethoxy-2-methylpyridine-3-yl)-N'-((2-fluoro-5-methoxypyridine-3-yl)methylene)pyrazine-2-carbohydrazide], the pIC50 was over 6.30 in assay [1] and under 6.00 in assay [2].

Turning to `CCOc1cc(OC)c(-c2cncc(C(=O)N/N=C/c3cc(OC)cnc3F)n2)cn1` [Compound 153, (E)-6-(6-ethoxy-4-methoxypyridine-3-yl)-N'-((2-fluoro-5-methoxypyridine-3-yl)methylene)pyrazine-2-carbohydrazide], the pIC50 in assay [1] and in assay [2] was under 6.00 throughout.
